Reference: patent US20250017964A1, “ENGINEERING OR INDUCING PDGF AND/OR PDGFR SIGNALING TO ENHANCE NK CELL THERAPY” (City of Hope, priority 2021, published 2025)

Tested on: PDGF-D
Assay: PDGF-D expression in NK cells (qPCR, flow cytometry, immunoblotting, ELISA)
Assay type: cell-based, human
Experimental: FIGS. 5A-5J. IL-15 induces PDGF-D expression in an autocrine manner. (A) mRNA levels of PDGFA, PDGFB, PDGFC, and PDGF-D in T cells, B cells, and NK cells were analyzed using the BioGPS online tool. (B) mRNA levels of PDGFA, PDGFB, PDGFC, and PDGF-D in T cells, B cells, and NK cells were examined by qPCR (n=10). (C) Primary NK cells were treated with IL-15 (10 ng/ml) for the indicated times. mRNA levels of PDGF-D were examined by qPCR (n=3). (D-E) Representative dot plots and percentages of PDGF-D levels in NK cells after IL-15 (50 ng/ml) treatment for 24 h. Resting NK cells were used as control (n=5). […] (I-J) Binding of p65 to the PDGF-D promoter in IL-15 treated (I) or resting NK cells (J) as determined by ChIP-qPCR (n=3). Data represent three independent experiments. Data shown are means±SD. […]
Cells were stained with the indicated cell-surface markers and/or fixed/permeabilized using a Fixation/Permeabilization Kit (eBioscience). […] Data were analyzed using NovoExpress software (Agilent Technologies).
RNA was isolated using an RNeasy Mini Kit (QIAGEN) and reversely transcribed to cDNA with a PrimeScript RT Reagent Kit with gDNA Eraser (Takara Bio) according to the manufacturer's protocol. mRNA expression levels were analyzed using SYBR Green qPCR Master Mix and a QuantStudio 12K Flex Real-Time PCR System (both from Thermo Fisher Scientific). […]

In the case of “IL-15: recombinant human IL-15 (200-15); recombinant murine IL-15 in the mouse NK cell test”, the “mRNA levels of PDGF-D in NK cells” value (IL-15 10 ng/ml, qPCR) is reported as “significantly increased” and the “protein levels of PDGF-D in NK cells” value (IL-15 50 ng/ml 24 h, flow cytometry, immunoblotting, ELISA) is reported as “significantly increased”.
